Laboratory results reported in patent publication US7138361B2, “Herbicidal heterocycles” (E. I. du Pont de Nemours and Company, priority 2000, dated 2006).

Assays:
Assay in all cases: Test C preemergence
Type in all cases: in vivo
Nightshade [1] = tested on: Nightshade
Sunflower = details: Rate 125 g/ha; scale 0 to 100, 0 no effect, 100 complete control
[2] = tested on: Surinam grass (Brachiaria decumbens); details: for Plant response rating (0 to 100), Surinam grass: Rate 500 g/ha, visual evaluation after 12 to 14 days
Summary of the method: (§1)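 Seeds are planted and treated before emergence; for the postemergence test, plants at 1- to 4-leaf stage (2–18 cm) receive the same formulation, a solvent blend containing surfactant. Plants stay in the greenhouse 12–14 days, then response is scored visually from 0 (none) to 100 (complete control).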

[3] = tested on: bermudagrass (Cynodon dactylon); details: for Plant response rating (0 to 100 where 0 is no effect and 100 is complete control), Bermudagrass: Rate 500 g/ha, visual evaluation after 12 to 14 days
Summary of the method: as §1

[4] = tested on: cocklebur (Xanthium strumarium); details: for Plant response rating (0 to 100), Cocklebur: Rate 500 g/ha, visual evaluation after 12 to 14 days
Summary of the method: as §1

[5] = tested on: common ragweed (Ambrosia elatior); details: for Plant response rating (0 to 100), Ragweed, Common: Rate 500 g/ha, visual evaluation after 12 to 14 days
Summary of the method: as §1

corn (Zea mays) = details: for Plant response rating (0 to 100), Corn: Rate 500 g/ha, visual evaluation after 12 to 14 days
Summary of the method: as §1

[6] = tested on: crabgrass (Digitaria sanguinalis); details: for Plant response rating (0 to 100), Crabgrass: Rate 500 g/ha, visual evaluation after 12 to 14 days
Summary of the method: as §1

[7] = tested on: giant foxtail (Setaria faberii); details: for Plant response rating (0 to 100), Foxtail, Giant: Rate 500 g/ha, visual evaluation after 12 to 14 days
Summary of the method: as §1

[8] = tested on: goosegrass (Eleusine indica); details: for Plant response rating (0 to 100), Goosegrass: Rate 500 g/ha, visual evaluation after 12 to 14 days
Summary of the method: as §1

[9] = tested on: johnsongrass (Sorghum halepense); details: for Plant response rating (0 to 100), Johnsongrass: Rate 500 g/ha, visual evaluation after 12 to 14 days
Summary of the method: as §1

kochia (Kochia scoparia) = details: for Plant response rating (0 to 100), Kochia: Rate 500 g/ha, visual evaluation after 12 to 14 days
Summary of the method: as §1

[10] = tested on: lambsquarters (Chenopodium album); details: for Plant response rating (0 to 100), Lambsquarters: Rate 500 g/ha, visual evaluation after 12 to 14 days
Summary of the method: as §1

[11] = tested on: morningglory (Ipomoea hederacea)
Summary of the method: as §1

[12] = tested on: pigweed (Amaranthus retroflexus); details: for Plant response rating (0 to 100), Pigweed: Rate 500 g/ha, visual evaluation after 12 to 14 days
Summary of the method: as §1

soybean (Glycine max) = details: for Plant response rating (0 to 100), Soybean: Rate 500 g/ha, visual evaluation after 12 to 14 days
Summary of the method: as §1

[13] = tested on: velvetleaf (Abutilon theophrasti); details: for Plant response rating (0 to 100), Velvetleaf: Rate 500 g/ha, visual evaluation after 12 to 14 days
Summary of the method: as §1

[14] = tested on: woolly cupgrass (Eriochloa villosa); details: for Plant response rating (0 to 100), Cupgrass, Woolly: Rate 500 g/ha, visual evaluation after 12 to 14 days
Summary of the method: as §1

[15] = tested on: yellow nutsedge (Cyperus esculentus); details: for Plant response rating (0 to 100), Nutsedge: Rate 500 g/ha, visual evaluation after 12 to 14 days
Summary of the method: as §1

Nightshade [16] = details: Rate 500 g/ha, visual evaluation after 12 to 14 days
[17] = Rate 125 g/ha, scale 0 to 100, 0 no effect, 100 complete control
[18] = Rate 250 g/ha, scale 0 to 100, 0 no effect, 100 complete control
[19] = preemergence, Rate 62 g/ha, scale 0 to 100
[20] = preemergence, Rate 250 g/ha, scale 0 to 100, 0 no effect, 100 complete control

## Cc1ccc(N2CCC(n3ccc(C(C)(C)C)n3)C2=O)cc1I (stereo not shown) [Compound 122]
Nightshade [1]; Rate 62 g/ha, scale 0 to 100
  Plant response rating, Nightshade: 0
Nightshade [1]; [17]
  Plant response rating, Nightshade: 0
Nightshade [1]; [18]
  Plant response rating, Nightshade: 30
Sunflower
  Plant response rating, Sunflower: 0
[2]; [17]
  Plant response rating, Surinam grass: 0
[2]; [19]
  Plant response rating, Surinam grass: 0
[2]; preemergence
  Plant response rating (0 to 100), Surinam grass: 60
[2]; [20]
  Plant response rating, Surinam grass: 20
[3]; [17]
  Plant response rating, Bermudagrass: 100
[3]; [19]
  Plant response rating, Bermudagrass: 100
[3]; preemergence
  Plant response rating (0 to 100 where 0 is no effect and 100 is complete control), Bermudagrass: 100
[3]; [20]
  Plant response rating, Bermudagrass: 100
[4]; [17]
  Plant response rating, Cocklebur: 0
[4]; [19]
  Plant response rating, Cocklebur: 0
[4]; preemergence
  Plant response rating (0 to 100), Cocklebur: 0
[4]; [20]
  Plant response rating, Cocklebur: 0
[5]; [17]
  Plant response rating, Ragweed, Common: 0
[5]; [19]
  Plant response rating, Ragweed, Common: 0
[5]; preemergence
  Plant response rating (0 to 100), Ragweed, Common: 100
[5]; [20]
  Plant response rating, Ragweed, Common: 20
Corn (Zea mays); [17]
  Plant response rating, Corn: 0
Corn (Zea mays); [19]
  Plant response rating, Corn: 0
Corn (Zea mays); preemergence
  Plant response rating (0 to 100), Corn: 0
Corn (Zea mays); [20]
  Plant response rating, Corn: 0
[6]; [17]
  Plant response rating, Crabgrass: 100
[6]; [19]
  Plant response rating, Crabgrass: 90
[6]; preemergence
  Plant response rating (0 to 100), Crabgrass: 100
[6]; [20]
  Plant response rating, Crabgrass: 100
[7]; [17]
  Plant response rating, Foxtail, Giant: 0
[7]; [19]
  Plant response rating, Foxtail, Giant: 0
[7]; preemergence
  Plant response rating (0 to 100), Foxtail, Giant: 0
[7]; [20]
  Plant response rating, Foxtail, Giant: 0
[8]; [17]
  Plant response rating, Goosegrass: 100
[8]; [19]
  Plant response rating, Goosegrass: 90
[8]; preemergence
  Plant response rating (0 to 100), Goosegrass: 100
[8]; [20]
  Plant response rating, Goosegrass: 100
[9]; [17]
  Plant response rating, Johnsongrass: 0
[9]; [19]
  Plant response rating, Johnsongrass: 0
[9]; preemergence
  Plant response rating (0 to 100), Johnsongrass: 20
[9]; [20]
  Plant response rating, Johnsongrass: 0
Kochia (Kochia scoparia); [17]
  Plant response rating, Kochia: 100
Kochia (Kochia scoparia); [19]
  Plant response rating, Kochia: 100
Kochia (Kochia scoparia); preemergence
  Plant response rating (0 to 100), Kochia: 100
Kochia (Kochia scoparia); [20]
  Plant response rating, Kochia: 100
[10]; [17]
  Plant response rating, Lambsquarters: 100
[10]; [19]
  Plant response rating, Lambsquarters: 100
[10]; preemergence
  Plant response rating (0 to 100), Lambsquarters: 100
[10]; [20]
  Plant response rating, Lambsquarters: 100
[11]; [17]
  Plant response rating, Morningglory: 0
[11]; [19]
  Plant response rating, Morningglory: 0
[11]; [20]
  Plant response rating, Morningglory: 100
[12]; [17]
  Plant response rating, Pigweed: 20
[12]; [19]
  Plant response rating, Pigweed: 0
[12]; preemergence
  Plant response rating (0 to 100), Pigweed: 100
[12]; [20]
  Plant response rating, Pigweed: 20
Soybean (Glycine max); [17]
  Plant response rating, Soybean: 0
Soybean (Glycine max); [19]
  Plant response rating, Soybean: 0
Soybean (Glycine max); preemergence
  Plant response rating (0 to 100), Soybean: 0
Soybean (Glycine max); [20]
  Plant response rating, Soybean: 0
[13]; [17]
  Plant response rating, Velvetleaf: 10
[13]; [19]
  Plant response rating, Velvetleaf: 0
[13]; preemergence
  Plant response rating (0 to 100), Velvetleaf: 20
[13]; [20]
  Plant response rating, Velvetleaf: 20
[14]; [17]
  Plant response rating, Cupgrass, Woolly: 20
[14]; [19]
  Plant response rating, Cupgrass, Woolly: 0
[14]; preemergence
  Plant response rating (0 to 100), Cupgrass, Woolly: 100
[14]; [20]
  Plant response rating, Cupgrass, Woolly: 100
[15]; [17]
  Plant response rating, Nutsedge: 0
[15]; [19]
  Plant response rating, Nutsedge: 0
[15]; preemergence
  Plant response rating (0 to 100), Nutsedge: 0
[15]; [20]
  Plant response rating, Nutsedge: 0
Nightshade [16]
  Plant response rating (0 to 100), Nightshade: 90

## CCC(C)Oc1cccc(N2CCC(n3ccc(C(C)(C)C)n3)C2=O)c1 (stereo not shown) [Compound 127]
Nightshade [1]; Rate 62 g/ha, scale 0 to 100
  Plant response rating, Nightshade: 0
Nightshade [1]; [17]
  Plant response rating, Nightshade: 0
Nightshade [1]; [18]
  Plant response rating, Nightshade: 0
Sunflower
  Plant response rating, Sunflower: 0
[2]; [17]
  Plant response rating, Surinam grass: 0
[2]; [19]
  Plant response rating, Surinam grass: 0
[2]; preemergence
  Plant response rating (0 to 100), Surinam grass: 100
[2]; [20]
  Plant response rating, Surinam grass: 20
[3]; [17]
  Plant response rating, Bermudagrass: 100
[3]; [19]
  Plant response rating, Bermudagrass: 90
[3]; preemergence
  Plant response rating (0 to 100 where 0 is no effect and 100 is complete control), Bermudagrass: 100
[3]; [20]
  Plant response rating, Bermudagrass: 100
[4]; [17]
  Plant response rating, Cocklebur: 0
[4]; [19]
  Plant response rating, Cocklebur: 0
[4]; preemergence
  Plant response rating (0 to 100), Cocklebur: 20
[4]; [20]
  Plant response rating, Cocklebur: 0
[5]; [17]
  Plant response rating, Ragweed, Common: 0
[5]; [19]
  Plant response rating, Ragweed, Common: 0
[5]; preemergence
  Plant response rating (0 to 100), Ragweed, Common: 10
[5]; [20]
  Plant response rating, Ragweed, Common: 10
Corn (Zea mays); [17]
  Plant response rating, Corn: 0
Corn (Zea mays); [19]
  Plant response rating, Corn: 0
Corn (Zea mays); preemergence
  Plant response rating (0 to 100), Corn: 30
Corn (Zea mays); [20]
  Plant response rating, Corn: 30
[6]; [17]
  Plant response rating, Crabgrass: 70
[6]; [19]
  Plant response rating, Crabgrass: 50
[6]; preemergence
  Plant response rating (0 to 100), Crabgrass: 100
[6]; [20]
  Plant response rating, Crabgrass: 100
[7]; [17]
  Plant response rating, Foxtail, Giant: 0
[7]; [19]
  Plant response rating, Foxtail, Giant: 0
[7]; preemergence
  Plant response rating (0 to 100), Foxtail, Giant: 100
[7]; [20]
  Plant response rating, Foxtail, Giant: 100
[8]; [17]
  Plant response rating, Goosegrass: 30
[8]; [19]
  Plant response rating, Goosegrass: 10
[8]; preemergence
  Plant response rating (0 to 100), Goosegrass: 100
[8]; [20]
  Plant response rating, Goosegrass: 100
[9]; [17]
  Plant response rating, Johnsongrass: 0
[9]; [19]
  Plant response rating, Johnsongrass: 0
[9]; preemergence
  Plant response rating (0 to 100), Johnsongrass: 0
[9]; [20]
  Plant response rating, Johnsongrass: 0
Kochia (Kochia scoparia); [17]
  Plant response rating, Kochia: 0
Kochia (Kochia scoparia); [19]
  Plant response rating, Kochia: 0
Kochia (Kochia scoparia); preemergence
  Plant response rating (0 to 100), Kochia: 0
Kochia (Kochia scoparia); [20]
  Plant response rating, Kochia: 0
[10]; [17]
  Plant response rating, Lambsquarters: 80
[10]; [19]
  Plant response rating, Lambsquarters: 20
[10]; preemergence
  Plant response rating (0 to 100), Lambsquarters: 100
[10]; [20]
  Plant response rating, Lambsquarters: 100
[11]; [17]
  Plant response rating, Morningglory: 0
[11]; [19]
  Plant response rating, Morningglory: 0
[11]; preemergence, Rate 500 g/ha, visual evaluation after 12 to 14 days
  Plant response rating (0 to 100), Morningglory: 20
[11]; [20]
  Plant response rating, Morningglory: 0
[12]; [17]
  Plant response rating, Pigweed: 0
[12]; [19]
  Plant response rating, Pigweed: 0
[12]; preemergence
  Plant response rating (0 to 100), Pigweed: 0
[12]; [20]
  Plant response rating, Pigweed: 0
Soybean (Glycine max); [17]
  Plant response rating, Soybean: 0
Soybean (Glycine max); [19]
  Plant response rating, Soybean: 0
Soybean (Glycine max); preemergence
  Plant response rating (0 to 100), Soybean: 0
Soybean (Glycine max); [20]
  Plant response rating, Soybean: 0
[13]; [17]
  Plant response rating, Velvetleaf: 0
[13]; [19]
  Plant response rating, Velvetleaf: 0
[13]; preemergence
  Plant response rating (0 to 100), Velvetleaf: 30
[13]; [20]
  Plant response rating, Velvetleaf: 10
[14]; [17]
  Plant response rating, Cupgrass, Woolly: 50
[14]; [19]
  Plant response rating, Cupgrass, Woolly: 0
[14]; preemergence
  Plant response rating (0 to 100), Cupgrass, Woolly: 100
[14]; [20]
  Plant response rating, Cupgrass, Woolly: 90
[15]; [17]
  Plant response rating, Nutsedge: 0
[15]; [19]
  Plant response rating, Nutsedge: 0
[15]; preemergence
  Plant response rating (0 to 100), Nutsedge: 0
[15]; [20]
  Plant response rating, Nutsedge: 0
Nightshade [16]
  Plant response rating (0 to 100), Nightshade: 100
